One test addresses T1, Kynureninase (KYNU) (Homo sapiens, UniProt Q16719).
T1 construct: endogenous in cells; host or cells: native cellular proteome
T1 sequence (Q16719 1-465): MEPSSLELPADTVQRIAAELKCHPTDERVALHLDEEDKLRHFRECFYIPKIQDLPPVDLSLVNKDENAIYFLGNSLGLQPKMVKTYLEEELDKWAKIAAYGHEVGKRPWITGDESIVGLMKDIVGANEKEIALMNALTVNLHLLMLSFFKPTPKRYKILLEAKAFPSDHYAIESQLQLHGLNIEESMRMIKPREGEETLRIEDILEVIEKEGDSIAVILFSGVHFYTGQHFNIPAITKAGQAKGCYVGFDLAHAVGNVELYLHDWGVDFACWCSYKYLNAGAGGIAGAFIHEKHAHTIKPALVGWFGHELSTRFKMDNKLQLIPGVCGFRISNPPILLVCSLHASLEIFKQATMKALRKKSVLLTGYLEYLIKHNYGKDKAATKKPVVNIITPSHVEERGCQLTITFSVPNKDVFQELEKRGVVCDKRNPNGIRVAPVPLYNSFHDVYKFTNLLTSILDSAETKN
Nature of the test: Jump-dilution LiP-MS, Calyculin A on non-target KYNU. It counts as binding. The following applies: entire length of the experiment after 100-fold jump-dilution; FIG. 8. The method, then:
(§1) Native proteomes were incubated with the ligand of interested (Staurosporine or Calyculin A)—lower panel—or with the solvent (DMSO)—upper panel. The sample treated with DMSO serves as negative control, and it is used to confirm that the observed effect is derived from the interaction of the Ligand with its Targets. The proteomes were then diluted by a factor of 100 (jump-dilution method), and aliquots with a sample of the ligand-bound proteome were extracted at distinct time points after dilution. Due to the reduction of the concentration of the Ligand in solution (as consequence to the jump-dilution), new binding events between Ligand and Target are very unlikely, and consequently it is expected that the proportion of Ligand-bound protein Target decreases over time, as the complex Ligand-Target dissociates. The samples incubated for the distinct times were then subjected to a limited proteolysis step using LiP-MS or DarkLiP-MS, and measured by mass spectrometry. In the right intensity (I) as a function of retention time (RT is given.
(§2) For both LiP-MS and DarkLiP-MS, the limited proteolysis is performed with the unspecific protease thermolysin. After incubation for a short amount of time, the reaction is stopped by addition of EDTA.
For processing of LiP-MS experiments (1), the samples are dried after stopping the reaction. […]

Test [1] has as its target T2, phoshatase PP2A-alpha (PPP2CA) (Homo sapiens, UniProt P67775).
T2 construct: endogenous in cells; host or cells: native cellular proteome
Put plainly: Jump-dilution LiP-MS residence-time pattern, Calyculin A on PPP2CA. It counts as binding. The note with it: 0 to 60 minutes after 100-fold jump-dilution; FIG. 7. The method, then:
Native proteomes were incubated with the ligand of interested (Staurosporine or Calyculin A)—lower panel—or with the solvent (DMSO)—upper panel. The sample treated with DMSO serves as negative control, and it is used to confirm that the observed effect is derived from the interaction of the Ligand with its Targets. The proteomes were then diluted by a factor of 100 (jump-dilution method), and aliquots with a sample of the ligand-bound proteome were extracted at distinct time points after dilution. […] The samples incubated for the distinct times were then subjected to a limited proteolysis step using LiP-MS or DarkLiP-MS, and measured by mass spectrometry. […]
Calyculin A is a natural compound that acts as an potent and irreversible inhibitor of serine/threonine protein phosphatases. To show the application of the LiP-MS technology for the measurement of irreversible drug-residence times, the experimental workflow described in FIGS. 3, 4 and 5 was applied to the phosphatase inhibitor Calyculin A. Native cellular proteomes were treated with Calyculin A or DMSO (vehicle) in duplicates, diluted 100 fold and analyzed by LiP-MS. […]

Test [2] deals with CDK1, CDK2, CDK4, CDK6, CDK7 and CDK9. The following applies: towards CDK1, CDK2, CDK4, CDK6, CDK7 and CDK9; cited from earlier work.
For test [3], the target named is T3, Dual specificity mitogen-activated protein kinase kinase 3 (MP2K3) (Homo sapiens, UniProt P46734).
T3 construct: endogenous in cells; host or cells: native cellular proteome
T3 sequence (P46734 1-347): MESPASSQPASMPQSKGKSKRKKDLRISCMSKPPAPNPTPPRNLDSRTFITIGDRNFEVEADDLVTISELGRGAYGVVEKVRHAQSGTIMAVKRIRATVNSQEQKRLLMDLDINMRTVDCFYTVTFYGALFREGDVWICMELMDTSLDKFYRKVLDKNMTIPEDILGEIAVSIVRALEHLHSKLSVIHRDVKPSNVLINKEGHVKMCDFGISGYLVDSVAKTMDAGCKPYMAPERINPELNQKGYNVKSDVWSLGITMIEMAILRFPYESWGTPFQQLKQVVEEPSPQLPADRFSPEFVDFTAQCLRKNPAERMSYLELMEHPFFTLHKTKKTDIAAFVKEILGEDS
Nature of the test: Jump-dilution LiP-MS residence time, complex MP2K3-Staurosporine. The format is binding. The following applies: for Half-life: time to 50% decrease of relative peptide abundance, 4-parameter logistic fit, 100-fold jump dilution, native cellular proteome. The method, then: as §1, §2
For processing of LiP-MS experiments (1), the samples are dried after stopping the reaction. After re-solubilization with urea, the partially-fragmented proteome is reduced and alkylated, diluted with ammonium bicarbonate, and treated with LysC and Trypsin to generate a fully fragmented peptide sample. This peptide sample is acidified with TFA and cleaned with a C18 resin before analysis by mass spectrometry.
Staurosporine is a natural compound that mimics the biological molecule ATP and acts as a promiscuous kinase inhibitor. Due to the similarities to ATP, Staurosporine has short residence times towards its protein Targets. To show the application of the LiP-MS technology for the measurement of short drug-residence times, the experimental workflow described in FIGS. 3, 4 and 5 was applied to the promiscuous kinase inhibitor Staurosporine. Native cellular proteomes were treated with Staurosporine or DMSO (vehicle) in duplicates, diluted 100 fold and analyzed by LiP-MS. The results of Example 1 are illustrated in FIG. 6. The graphs of FIG. 6 show the average abundances (y-axis) of four different peptides Peptide 1-Peptide 4 of the kinase MP2K3 measured between 0 and 60 minutes after jump-dilution (x-axis). The peptides Peptide 1-Peptide 4 are described in the database PeptideAtlas with the accessions PAp01457867, Pap00639637, PAp02016489 and PAp00503812. The graphs show a difference in peptide abundance between Staurosporine and DMSO, which is larger at earlier time points after dilution (between 0 and 30 min). The difference in abundance between Staurosporine-treated samples and DMSO decreases has time progresses.
Accordingly to equation 1, the residence-time of Staurosporine towards MP2K3 can be determined based on the half-life of the complex MP2K3-Staurosporine. Since the half-life of the complex MP2K3-Staurosporine corresponds to the interval of time that led to a reduction of peptide abundance by 50%, we fit the values of peptide abundance to a 4-parameter logistic curve. Thereby we obtained the time that corresponded to a decrease of relative peptide abundance by 50% (Table 2). Since each peptide generates a slightly different value for the half-life of the complex due experimental variability, we calculated the median of the 4 values obtained based on the four graphs of FIG. 6.

T2 sequence (P67775 whole entry): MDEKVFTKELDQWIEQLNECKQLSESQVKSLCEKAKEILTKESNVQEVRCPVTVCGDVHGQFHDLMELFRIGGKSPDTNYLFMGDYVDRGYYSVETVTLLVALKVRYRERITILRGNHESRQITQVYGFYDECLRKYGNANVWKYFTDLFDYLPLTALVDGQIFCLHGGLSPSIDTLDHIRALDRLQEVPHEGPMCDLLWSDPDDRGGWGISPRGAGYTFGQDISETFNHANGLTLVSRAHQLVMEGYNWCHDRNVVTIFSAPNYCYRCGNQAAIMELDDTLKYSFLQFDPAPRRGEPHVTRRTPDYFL

Take `COC[C@@H]([C@H](O)[C@H](O)C(=O)NCC[C@H](C)c1nc(/C=C/C[C@@H]2O[C@]3(C[C@@H](O)[C@@H]2C)O[C@H]([C@H](C[C@H](O)[C@H](C)[C@H](O)[C@H](C)/C=C(C)/C(C)=C/C=C/C(C)=C\C#N)OC)[C@H](OP(=O)(O)O)C3(C)C)co1)N(C)C` [Calyculin A]: the “Binding / structural alteration of KYNU (Peptide 6 intensity vs DMSO)” value at Kynureninase (KYNU) is reported as “did not bind to KYNU”. In addition, the “Structural alteration of PPP2CA (Peptide 5 abundance vs DMSO) over time after jump-dilution” value in test [1] was “did not disappear over time”.

Take `C[C@@H](O)[C@@H](C)Oc1nc(Nc2ccc(S(=N)(=O)C3CC3)cc2)ncc1C(F)(F)F` (stereo partly drawn) [Roniclib]: the IC50 values entry in test [2] is on record as “nanomolar range”.

With `CN[C@@H]1C[C@H]2O[C@@](C)([C@@H]1OC)n1c3ccccc3c3c4c(c5c6ccccc6n2c5c31)C(=O)NC4` [Staurosporine], the “Structural alteration of MP2K3 (peptide abundance vs DMSO) over time after jump-dilution” value in test [3] (0 to 60 minutes after 100-fold jump-dilution, FIG. 6) was “structural alteration disappeared over time”. In addition, the “Half-life” value is reported as 25 min in test [3] (Peptide 1 of MP2K3), 61 min in test [3] (Peptide 2 of MP2K3), 129 min in test [3] (Peptide 3 of MP2K3) and 29 min in test [3] (Peptide 4 of MP2K3). In addition, the “Median half-life” value in test [3] (median of the 4 peptide half-lives) was determined as 45 min.

The values are drawn from patent US20260086093A1, “METHODS TO DETERMINE DRUG TARGET RESIDENCE TIME AND TO SELECT BEST DRUG-TARGET CANDIDATES” (BiognoSYS AG, priority 2022, published 2026).
